The numbers were not newly measured in patent US6537592B2, “Extracts of kava-kava” (Kava Pharmaceuticals, Inc., priority 2000, dated 2003), which cites them from elsewhere.

The conditions of the series: at 21° C., water.

Consider `COC1=CC(=O)O[C@@H](/C=C/c2ccccc2)C1` [kawain], for which the maximum solubility result was “about 2.2 mg/100 ml water”.
